System: TFEB
Test: TFEB nuclear translocation assay, HeLa wt cells
Type: cell-based
Details: 2 hrs compound treatment, Table 1 does not say HeLa wt or TRPML1 KO
Method: For the TFEB nuclear translocation assay, HeLa wt or HeLa TRPML1 KO cells were plated at 2700 cells/well into black-walled, 384-well Cell carrier Ultra tissue culture treated plates in complete media and incubated overnight. The next day, cells are treated for 2 hrs with compounds and incubated at 37° C. Cells were then fixed for 30 minutes at room temperature in 4% final PFA and washed five times with 90 μL PBS. PBS is aspirated from the wells and the cells are blocked with 7.5 μL blocking buffer (1:1 PBS/Odyssey block buffer containing 0.1% triton x-100 and 1% goat serum). After 30-60 minutes of block, 7.5 μL of primary anti-TFEB (rabbit) antibody is added for a final dilution of 1:200 antibody in 15 μL blocking buffer. Plates are incubated overnight at 4° C. The following day, plates are washed again into PBS, 90 μL with 5 washes, all PBS is aspirated from the wells and the cells are incubated for 1 hr in 1:1000 goat-anti rabbit Alexa 488 secondary antibody, also containing 10 μg/mL Hoechst 33342. After the 1 hr room temperature incubation, plates are washed a final time into PBS, sealed with foil and imaged with an automated epifluorescence microscopy (PerkinElmer Operetta CLS). Four different fields were imaged per well using ×20 magnification for DAPI and FITC filter sets. Images were quantified using PerkinElmer Harmony software, briefly: apply flatfield correction (basic/advanced) for input images. Use the Find Nuclei building block with channel set at Hoechst to find the nuclei. Use the Find cytoplasm building block with channel set to Alexa 488 to find the cytoplasm. Use select cell region with Channel set at Alexa 488 and region of interest as Nuclei and define outer border at 0 μm and inner at 45 μm to cover complete nuclei. Use select cell region with Channel set at Alexa 488 and region of interest as ring region and define outer border at −5 μm and inner at 0 μm to define a ring around the nucleus. Use the find calculate intensity parameter to calculate intensity of the nuclear region and the ring region. Define results as Number of nuclei and ratio of A/B where A is Intensity of Nuclei and B is intensity of the ring region.
The compound numbers correspond to the compound numbers above in Tables A or B. Compounds having an activity designated as “++++” provided an AC50 of ≤2.00 μM; compounds having an activity designated as “+++” provided an AC50 of 2.01-8.00 μM; compounds having an activity designated as “++” provided an AC50 of 8.01-9.99 μM; and compounds having an activity designated as “+” provided an AC50 of ≥10.00 μM.

Q: How did the AC50 turn out when `CC(c1cccc(F)c1N1CCCCC1)S(=O)(=O)c1ccc2c(c1)CCS2(=N)=O` (single isomer, unassigned) [Compound A-960] was run?
A: The AC50 was at least 10 µM.

Q: For `CC(c1cccc(F)c1N1CCC(COC(C)(C)C)CC1)S(=O)(=O)c1ccc(S(=N)(=O)N(C)C)cc1` (single isomer, unassigned) [Compound A-961, 4-((1-(2-(4-(tert-butoxymethyl)piperidin-1-yl)-3-fluorophenyl)ethyl)sulfonyl)-N,N-dimethylbenzenesulfonimidamide], which AC50 is on record?
A: The AC50 was at least 10 µM.

Q: `CC(c1cccc(F)c1N1CCC(COC(C)(C)C)CC1)S(=O)(=O)c1ccc(S(=N)(=O)N(C)C)cc1` (single isomer, unassigned) [Compound A-962, 4-((1-(2-(4-(tert-butoxymethyl)piperidin-1-yl)-3-fluorophenyl)ethyl)sulfonyl)-N,N-dimethylbenzenesulfonimidamide] was tested. Which AC50 did it give?
A: The AC50 was at most 2 µM.

Q: For `CC(c1cccc(F)c1N1CCC(C)(C(F)F)CC1)S(=O)(=O)c1ccc(C(F)F)cc1` (single isomer, unassigned) [Compound A-964, 4-(difluoromethyl)-1-(2-(1-((4-(difluoromethyl)phenyl)sulfonyl)ethyl)-6-fluorophenyl)-4-methylpiperidine], which AC50 is on record?
A: Its AC50 is at most 2 µM.

Q: Which AC50 does the source give for `Cc1ccc(S(=O)(=O)C(C)c2cccc(F)c2N2CCC(CN3C4CCC3COC4)CC2)cc1` (single isomer, unassigned) [Compound A-965, 8-((1-(2-fluoro-6-(1-tosylethyl)phenyl)piperidin-4-yl)methyl)-3-oxa-8-azabicyclo[3.2.1]octane] here?
A: The AC50 was at least 10 µM.

Q: Which AC50 does the source give for `CC(c1cccc(F)c1N1CCOCC1)S(=O)(=O)c1ccc2c(c1)CCS2(=O)=O` (single isomer, unassigned) [Compound A-967, 5-((1-(3-fluoro-2-morpholinophenyl)ethyl)sulfonyl)-2,3-dihydrobenzo[b]thiophene 1,1-dioxide] here?
A: Its AC50 is at least 10 µM.

Q: For `CC(c1cccc(F)c1N1CCC(C)(C(F)F)CC1)S(=O)(=O)c1ccc(S(=N)(=O)N(C)C)cc1` (single isomer, unassigned) [Compound A-974, 4-((1-(2-(4-(difluoromethyl)-4-methylpiperidin-1-yl)-3-fluorophenyl)ethyl)sulfonyl)-N,N-dimethylbenzenesulfonimidamide], which AC50 is on record?
A: The AC50 was at most 2 µM.

Q: For `CC(c1cccc(F)c1N1CCC(C)(C(F)F)CC1)S(=O)(=O)c1ccc(S(=N)(=O)N(C)C)cc1` (single isomer, unassigned) [Compound A-975, 4-((1-(2-(4-(difluoromethyl)-4-methylpiperidin-1-yl)-3-fluorophenyl)ethyl)sulfonyl)-N,N-dimethylbenzenesulfonimidamide], which AC50 is on record?
A: Its AC50 is at least 10 µM.

Q: `CC(c1cccc(F)c1N1CCC(COC(C)(C)C)CC1)S(=O)(=O)c1ccc(C(F)F)cc1` (single isomer, unassigned) [Compound A-977, 4-(tert-butoxymethyl)-1-(2-(1-((4-(difluoromethyl)phenyl)sulfonyl)ethyl)-6-fluorophenyl)piperidine] was tested. Which AC50 did it give?
A: Its AC50 is 2.01 to 8 µM.

Q: How did the AC50 turn out when `CC(c1cc(Cl)cnc1N1CCC(CN2CCC(F)(F)CC2)CC1)S(=O)(=O)c1ccc(S(=O)(=O)N(C)C)cc1` (single isomer, unassigned) [Compound A-979, 4-((1-(5-chloro-2-(4-((4,4-difluoropiperidin-1-yl)methyl)piperidin-1-yl)pyridin-3-yl)ethyl)sulfonyl)-N,N-dimethylbenzenesulfonamide] was run?
A: Its AC50 is 2.01 to 8 µM.

Q: Which AC50 does the source give for `CC(c1cccc(F)c1N1CCCCC1)S(=O)(=O)c1ccc(S2(=O)=NCCC2)cc1` (single isomer, unassigned) [Compound A-980, 1-(4-((1-(3-fluoro-2-(piperidin-1-yl)phenyl)ethyl)sulfonyl)phenyl)-4,5-dihydro-3H-isothiazole 1-oxide] here?
A: Its AC50 is at least 10 µM.

Q: Which AC50 does the source give for `CC(c1cccc(F)c1N1CCCCC1)S(=O)(=O)c1ccc(S2(=O)=NCCC2)cc1` (single isomer, unassigned) [Compound A-981, 1-(4-((1-(3-fluoro-2-(piperidin-1-yl)phenyl)ethyl)sulfonyl)phenyl)-4,5-dihydro-3H-isothiazole 1-oxide] here?
A: The AC50 was at least 10 µM.

Q: With `CN(C)S(=O)(=O)c1ccc(S(=O)(=O)C(c2cccc(F)c2N2CCCCC2)C2CC2)cc1` (single isomer, unassigned) [Compound A-983, 4-((cyclopropyl(3-fluoro-2-(piperidin-1-yl)phenyl)methyl)sulfonyl)-N,N-dimethylbenzenesulfonamide] as the compound, how does the AC50 read?
A: The AC50 was at most 2 µM.

Q: For `CC(c1cccc(F)c1N1[C@@H]2CCC[C@H]1CC2)S(=O)(=O)c1ccc(S(=N)(=O)N(C)C)cc1` (single isomer, unassigned) [Compound A-989, 4-((1-(2-(8-azabicyclo[3.2.1]octan-8-yl)-3-fluorophenyl)ethyl)sulfonyl)-N,N-dimethylbenzenesulfonimidamide], which AC50 is on record?
A: Its AC50 is 8.01 to 9.99 µM.

Q: `Cc1cnc(N2CCC(CN3CCC(F)(F)CC3)CC2)c(C(C)S(=O)(=O)c2ccc(S(=O)(=O)N(C)C)cc2)c1` (single isomer, unassigned) [Compound A-990, 4-((1-(2-(4-((4,4-difluoropiperidin-1-yl)methyl)piperidin-1-yl)-5-methylpyridin-3-yl)ethyl)sulfonyl)-N,N-dimethylbenzenesulfonamide] was tested. Which AC50 did it give?
A: The AC50 was at most 2 µM.

Q: With `CC(c1cccc(F)c1N1CCCCC1)S(=O)(=O)c1ccc(S2(=O)=NCCC2)cc1` (single isomer, unassigned) [Compound A-991, 1-(4-((1-(3-fluoro-2-(piperidin-1-yl)phenyl)ethyl)sulfonyl)phenyl)-4,5-dihydro-3H-isothiazole 1-oxide] as the compound, how does the AC50 read?
A: The AC50 was 2.01 to 8 µM.

Q: `CC(c1cccc(F)c1N1CCCCC1)S(=O)(=O)c1ccc(S2(=O)=NCCC2)cc1` (single isomer, unassigned) [Compound A-992, 1-(4-((1-(3-fluoro-2-(piperidin-1-yl)phenyl)ethyl)sulfonyl)phenyl)-4,5-dihydro-3H-isothiazole 1-oxide] was tested. Which AC50 did it give?
A: Its AC50 is at least 10 µM.

Same assay, conditions: Homo sapiens, HeLa, 2 h, 2 hrs compound treatment, Table 1 does not say HeLa wt or TRPML1 KO

Q: Which AC50 does the source give for `CC(c1cccc(F)c1N1CCC(C)(C(F)F)CC1)S(=O)(=O)c1ccc(C(F)F)cc1` (single isomer, unassigned) [Compound A-963, 4-(difluoromethyl)-1-(2-(1-((4-(difluoromethyl)phenyl)sulfonyl)ethyl)-6-fluorophenyl)-4-methylpiperidine] here?
A: The AC50 was 2.01 to 8 µM.

Q: How did the AC50 turn out when `CC(c1cccc(F)c1N1CCOCC1)S(=O)(=O)c1ccc2c(c1)CCS2(=O)=O` (single isomer, unassigned) [Compound A-966, 5-((1-(3-fluoro-2-morpholinophenyl)ethyl)sulfonyl)-2,3-dihydrobenzo[b]thiophene 1,1-dioxide] was run?
A: The AC50 was at least 10 µM.

Q: With `CC(c1cccc(F)c1N1CCC(COC(C)(C)C)CC1)S(=O)(=O)c1ccc(C(F)F)cc1` (single isomer, unassigned) [Compound A-976, 4-(tert-butoxymethyl)-1-(2-(1-((4-(difluoromethyl)phenyl)sulfonyl)ethyl)-6-fluorophenyl)piperidine] as the compound, how does the AC50 read?
A: Its AC50 is at most 2 µM.

Q: For `CC(c1cc(Cl)cnc1N1CCC(CN2CCC(F)(F)CC2)CC1)S(=O)(=O)c1ccc(S(=O)(=O)N(C)C)cc1` (single isomer, unassigned) [Compound A-978, 4-((1-(5-chloro-2-(4-((4,4-difluoropiperidin-1-yl)methyl)piperidin-1-yl)pyridin-3-yl)ethyl)sulfonyl)-N,N-dimethylbenzenesulfonamide], which AC50 is on record?
A: The AC50 was at most 2 µM.

Q: With `CN(C)S(=O)(=O)c1ccc(S(=O)(=O)C(c2cccc(F)c2N2CCCCC2)C2CC2)cc1` (single isomer, unassigned) [Compound A-982, 4-((cyclopropyl(3-fluoro-2-(piperidin-1-yl)phenyl)methyl)sulfonyl)-N,N-dimethylbenzenesulfonamide] as the compound, how does the AC50 read?
A: The AC50 was at most 2 µM.

Q: Which AC50 does the source give for `CC(c1cccc(F)c1N1[C@@H]2CCC[C@H]1CC2)S(=O)(=O)c1ccc(S(=N)(=O)N(C)C)cc1` (single isomer, unassigned) [Compound A-988, 4-((1-(2-(8-azabicyclo[3.2.1]octan-8-yl)-3-fluorophenyl)ethyl)sulfonyl)-N,N-dimethylbenzenesulfonimidamide] here?
A: The AC50 was at least 10 µM.

Q: For `CC(c1cc(Cl)cnc1N1CCC(CN2CCC(F)(F)CC2)CC1)S(=O)(=O)c1ccc2c(c1)CCC2` (single isomer, unassigned) [Compound A-993, 5-chloro-2-(4-((4,4-difluoropiperidin-1-yl)methyl)piperidin-1-yl)-3-(1-((2,3-dihydro-1H-inden-5-yl)sulfonyl)ethyl)pyridine], which AC50 is on record?
A: The AC50 was at most 2 µM.
